Consider 17 molecules from patent publication US11878970B2, “Allosteric chromenone inhibitors of phosphoinositide 3-kinase (PI3K) for the treatment of disease” (Petra Pharma Corporation, priority 2021, dated 2024).

The target of test [1] is PI3K-α (PIK3CA) in MDA-MB-453 cells (Homo sapiens, UniProt P42336). Description: PI3K-alpha kinase (PIK3CA) in vitro cell based assay, MDA-MB-453 cells, SureFire Ultra AlphaLisa. Particulars: read-out: PI3K-α (PIK3CA) in vitro cell based assay IC50. Here is the method: PI3K-Alpha Kinase (PIK3CA) Activity In Vitro Cell Based Assay and Determining IC50 Values for Inhibitors
The MDA-MB-453 (ATCC-HTB-131) cell line was obtained from the American Type Culture Collection (Manassas, VA). Cells were maintained in Dulbecco's Modified Eagle Media (DMEM, Gibco 11965-092) supplemented with 10% Fetal Bovine Serum, heat inactivated (FBS HI, Gibco 10082-147), 1× non-essential amino acids (NEAA, Gibco 11140-050), and 1 mM sodium pyruvate (Gibco 11360-070). Cultures were maintained in a humidified incubator at 37° C. under 5% CO2/95% air.
For compound testing in 0% FBS, MDA-MB-453 cells were seeded at a density of 1.5×10^4 cells per well in white 384-well plates in 20 μl of Minimum Essential Media (MEM) assay media with 1×NEAA, 1 mM sodium pyruvate, and 1 μg/mL human insulin (Sigma I9278). Compounds dissolved in 10 mM stock solutions in DMSO were serially diluted 1:3 in DMSO to generate a 10-point dilution series and plated using an acoustic liquid handler system (Echo 550 Series Liquid Handler, Labcyte). A 5× intermediate compound dilution plate in MEM with 1×NEAA and 1 mM sodium pyruvate (150 μM starting compound concentration in 1.5% DMSO) was then prepared. Five μl of the intermediate serially diluted compounds were added to the cell plate to final concentrations ranging from […] in 0.3% DMSO. 0.3% DMSO alone was used to establish the maximum (MAX) signal and GDC-0032 at a final concentration of 1 μM was used as a reference compound for the minimum (MIN) signal. After 3 hours treatment, the medium was removed, and the cells lysed in 10 μL of 1× SureFire Lysis buffer with shaking for 10 minutes at room temperature. The Acceptor Mix (Reaction Buffer 1+Reaction Buffer 2+Activation Buffer+SureFire Ultra Acceptor Beads) was prepared by diluting Activation buffer 25-fold in combined Reaction Buffer 1 and Reaction Buffer 2. The Acceptor beads were diluted 50-fold in the combined Reaction Buffers. Five μL of Acceptor Mix was added to each well, the plate was sealed and covered with foil and incubated for 1 hour at room temperature. The Donor Mix (dilution buffer+SureFire Ultra Donor Beads) was prepared by diluting Donor Beads 50-fold in dilution buffer. Five μL of the Donor Mix was added to each well and the plate sealed and covered with foil and incubated for 1 hour at room temperature in the dark. The plates were read on a Neo2 plate reader instrument from Biotek using standard AlphaLisa settings. Compounds were tested in duplicate and the average % inhibition at each compound concentration was used to generate a single dose response curve. The data were processed using the Genedata-Screener tool. Relative IC50 values were determined using luminescence units by calculating percent inhibition with respect to the in-plate “MIN” (GDC-0032 reference control) and “MAX” (DMSO) controls. The data was analyzed using a 4-parameter nonlinear logistic equation (four-parameter logistic concentration-response curve): Y=bottom+[(top−bottom)/1+(X/IC50)slope] where Y=% inhibition, X=concentration of inhibitor, bottom=minimum value of y attained by curve-fit, top=maximum value of y attained by curve-fit and slope=steepness of curve at the IC50. % Inhibition=[(signal at X−median Min)/(median Max−median Min)]×100 IC50: concentration of compound that reduces a given response (ligand binding, enzyme response) by 50%. Relative IC50: concentration giving half the compound's maximum response.

Test [2] has as its target T1, PI3K-α (PIK3CA) H1047R mutant, p110α/p85α complex (Homo sapiens, UniProt P42336, H1047R).
T1 construct: Recombinant, catalytically active human full length PIK3KA Wild-type and H1047R mutant; 6×His (N); purchased EMD Millipore Sigma 14-792M
Description: PI3K-alpha kinase (PIK3CA) biochemical activity, ADP-Glo, H1047R mutant. Particulars: Soy PI lipid substrate. The method, boiled down: (§1)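 ADP formation measured by ADP-Glo luminescence after reaction at 27 °C to about 10% ATP turnover, using 20 uM ATP, 50 uM PIP2diC8 or soy PI lipid, HEPES pH 7.4 with MgCl2. Enzyme (1-5 nM WT or H1047R p110α/p85α) and compound preincubated 1 h first; 10-point 1:3 curves fitted four-parameter for IC50.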
In general terms: ADP-Glo first removes unused ATP, then detects ADP through luciferase.

Test [3] addresses T2, PI3K-α (PIK3CA) wild-type (WT), p110α/p85α complex (Homo sapiens, UniProt P42336).
T2 construct: Recombinant, catalytically active human full length PIK3KA Wild-type and H1047R mutant; 6×His (N); purchased EMD Millipore Sigma 14-602M
Description: PI3K-alpha kinase (PIK3CA) biochemical activity, ADP-Glo, wild-type. The conditions noted are these: Soy PI lipid substrate. The essentials:
as §1

T1 sequence (P42336 whole entry H1047R): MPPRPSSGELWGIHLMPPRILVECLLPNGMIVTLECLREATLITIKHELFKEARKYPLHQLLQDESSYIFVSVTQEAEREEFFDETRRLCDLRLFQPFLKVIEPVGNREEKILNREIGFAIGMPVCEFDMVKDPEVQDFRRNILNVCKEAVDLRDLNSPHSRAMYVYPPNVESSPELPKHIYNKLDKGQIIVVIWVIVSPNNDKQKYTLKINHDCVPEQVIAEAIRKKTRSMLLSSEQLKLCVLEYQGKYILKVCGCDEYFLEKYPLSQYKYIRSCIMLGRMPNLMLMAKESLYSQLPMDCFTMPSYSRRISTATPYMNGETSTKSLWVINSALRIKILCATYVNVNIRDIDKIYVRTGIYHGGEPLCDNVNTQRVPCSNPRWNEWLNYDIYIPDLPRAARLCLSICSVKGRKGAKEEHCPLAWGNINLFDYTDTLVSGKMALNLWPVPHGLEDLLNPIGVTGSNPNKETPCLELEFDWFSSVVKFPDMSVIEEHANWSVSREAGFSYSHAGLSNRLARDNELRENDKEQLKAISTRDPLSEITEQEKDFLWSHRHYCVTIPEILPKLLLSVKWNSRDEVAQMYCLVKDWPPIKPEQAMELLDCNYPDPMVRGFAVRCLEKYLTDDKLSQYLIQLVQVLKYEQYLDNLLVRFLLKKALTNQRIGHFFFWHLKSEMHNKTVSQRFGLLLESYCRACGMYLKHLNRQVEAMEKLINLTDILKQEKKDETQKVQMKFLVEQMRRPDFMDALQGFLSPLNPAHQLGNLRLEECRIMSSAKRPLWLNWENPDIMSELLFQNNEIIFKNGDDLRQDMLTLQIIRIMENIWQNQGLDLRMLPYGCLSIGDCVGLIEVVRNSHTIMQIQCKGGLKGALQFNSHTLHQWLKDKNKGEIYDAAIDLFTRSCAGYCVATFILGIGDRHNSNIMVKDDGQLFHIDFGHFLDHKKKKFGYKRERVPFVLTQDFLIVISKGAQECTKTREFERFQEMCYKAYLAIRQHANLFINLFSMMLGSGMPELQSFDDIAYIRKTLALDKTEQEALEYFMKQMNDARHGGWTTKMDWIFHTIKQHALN
T1 sequence (P27986 whole entry partner): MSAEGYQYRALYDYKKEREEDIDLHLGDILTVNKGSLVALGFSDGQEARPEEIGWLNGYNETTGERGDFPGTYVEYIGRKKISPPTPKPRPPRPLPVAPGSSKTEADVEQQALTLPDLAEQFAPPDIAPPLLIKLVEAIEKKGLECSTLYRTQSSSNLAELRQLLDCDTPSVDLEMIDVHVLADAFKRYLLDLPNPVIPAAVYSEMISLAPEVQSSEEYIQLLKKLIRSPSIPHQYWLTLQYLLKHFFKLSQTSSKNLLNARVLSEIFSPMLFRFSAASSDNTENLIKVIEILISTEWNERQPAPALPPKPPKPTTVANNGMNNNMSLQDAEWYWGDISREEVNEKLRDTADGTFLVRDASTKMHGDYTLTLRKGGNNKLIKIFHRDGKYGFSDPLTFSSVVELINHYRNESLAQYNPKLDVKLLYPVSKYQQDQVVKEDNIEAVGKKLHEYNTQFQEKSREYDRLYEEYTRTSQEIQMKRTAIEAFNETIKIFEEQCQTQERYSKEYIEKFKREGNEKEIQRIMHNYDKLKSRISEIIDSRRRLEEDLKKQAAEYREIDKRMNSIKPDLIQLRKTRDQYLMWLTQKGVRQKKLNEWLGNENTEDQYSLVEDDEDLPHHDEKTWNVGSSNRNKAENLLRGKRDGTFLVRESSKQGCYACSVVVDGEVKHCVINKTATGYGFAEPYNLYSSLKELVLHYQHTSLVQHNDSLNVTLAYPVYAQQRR
PI3K-α (PIK3CA) in MDA-MB-453 cells, sequence (P27986 2-724): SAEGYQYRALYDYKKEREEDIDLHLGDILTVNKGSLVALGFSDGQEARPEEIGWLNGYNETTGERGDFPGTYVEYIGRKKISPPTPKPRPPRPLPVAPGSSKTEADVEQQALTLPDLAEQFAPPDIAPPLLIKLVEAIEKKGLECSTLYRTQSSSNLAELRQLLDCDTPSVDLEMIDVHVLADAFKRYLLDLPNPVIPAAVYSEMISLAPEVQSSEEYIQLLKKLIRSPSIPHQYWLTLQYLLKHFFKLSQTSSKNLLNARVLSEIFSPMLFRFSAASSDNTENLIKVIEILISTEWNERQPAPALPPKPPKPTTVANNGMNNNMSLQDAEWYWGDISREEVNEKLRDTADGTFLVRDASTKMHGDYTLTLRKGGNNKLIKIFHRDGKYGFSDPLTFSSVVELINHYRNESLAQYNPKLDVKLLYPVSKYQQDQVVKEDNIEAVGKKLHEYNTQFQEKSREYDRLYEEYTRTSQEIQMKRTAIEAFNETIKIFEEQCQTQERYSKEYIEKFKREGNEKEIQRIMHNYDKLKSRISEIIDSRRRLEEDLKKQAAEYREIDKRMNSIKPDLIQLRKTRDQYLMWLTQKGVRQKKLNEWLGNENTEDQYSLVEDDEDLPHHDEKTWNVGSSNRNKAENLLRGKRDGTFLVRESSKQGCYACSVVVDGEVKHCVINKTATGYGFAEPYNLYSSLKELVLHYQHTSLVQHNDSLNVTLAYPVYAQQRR
PI3K-α (PIK3CA) in MDA-MB-453 cells, sequence (P42336 whole entry): as the sequence (P42336 whole entry H1047R) above, with R1047H counted along it

As to `Cc1cc(C(C)Nc2ccccc2C(=O)O)c2oc(-c3cc4ccccc4[nH]3)cc(=O)c2c1` (single isomer, unassigned) [Example 68, 2-[1-[2-(1H-Indol-2-yl)-6-methyl-4-oxo-chromen-8-yl]ethylamino]benzoic acid], the half-maximal inhibitory concentration (IC50) was below 50 nM in test [1], below 500 nM in test [2] and 500 to 1000 nM in test [3].
As to `COc1ccc2nc(-c3cc(=O)c4cc(C)cc([C@@H](C)Nc5ccccc5C(=O)O)c4o3)ccc2n1` [Example 255, 2-[[(1R)-1-[2-(6-Methoxy-1,5-naphthyridin-2-yl)-6-methyl-4-oxo-chromen-8-yl]ethyl]amino]benzoic acid], the IC50 in test [1] was in the range of 50 to 100 nM; in test [2], 500 to 1000 nM; in test [3], 1000 to 5000 nM.
Turning to `Cc1cc(C(C)Nc2ccccc2C(=O)O)c2oc(-c3cccc4oc(C)nc34)cc(=O)c2c1` (single isomer, unassigned) [Example 117, 2-[1-[6-Methyl-2-(2-methyl-1,3-benzoxazol-4-yl)-4-oxo-chromen-8-yl]ethylamino]benzoic acid], the IC50 in test [1] was above 500 nM; in test [2], 500 to 1000 nM; in test [3] it was 1000 to 5000 nM.
Turning to `Cc1cc([C@@H](C)Nc2ccc(F)cc2C(=O)O)c2oc(-c3ccc4c(cnn4C)c3)c(C)c(=O)c2c1` [Example 260, 2-[[(1R)-1-[3,6-Dimethyl-2-(1-methylindazol-5-yl)-4-oxo-chromen-8-yl]ethyl]amino]-5-fluoro-benzoic acid], the IC50 in test [1] was below 50 nM; in test [2] it was below 500 nM; in test [3] it was below 500 nM.
In the case of `Cc1cc([C@@H](C)Nc2ccc(F)cc2C(=O)O)c2oc(-c3ccc4nc(C)sc4n3)c(C)c(=O)c2c1` [Example 254, 2-[[(1R)-1-[3,6-Dimethyl-2-(2-methylthiazolo[5,4-b]pyridin-5-yl)-4-oxo-chromen-8-yl]ethyl]amino]-5-fluoro-benzoic acid], the IC50 in test [1] is below 50 nM; in test [2] it was below 500 nM; in test [3] it was 500 to 1000 nM.
On to `Cc1cc([C@@H](C)Nc2ccccc2C(=O)O)c2oc(-c3ccc4nc(C)oc4n3)c(C)c(=O)c2c1` [Example 256, 2-[[(1R)-1-[3,6-Dimethyl-2-(2-methyloxazolo[5,4-b]pyridin-5-yl)-4-oxo-chromen-8-yl]ethyl]amino]benzoic acid], for which the IC50 in test [1] was below 50 nM; in test [2], below 500 nM; in test [3] it was 500 to 1000 nM.
Take `Cc1cc([C@@H](C)Nc2ccc(F)cc2C(=O)O)c2oc(-c3ccc4cnn(C)c4c3)cc(=O)c2c1` [Example 238, 5-Fluoro-2-[[(1R)-1-[6-methyl-2-(1-methylindazol-6-yl)-4-oxo-chromen-8-yl]ethyl]amino]benzoic acid]: the IC50 is below 50 nM in test [1], below 500 nM in test [2] and below 500 nM in test [3].
Regarding `CC(Nc1ccc(Cl)nc1C(=O)O)c1cc(C(F)(F)F)cc2c(=O)cc(-c3ccc4cnn(C)c4c3)oc12` (single isomer, unassigned) [Example 108, 6-Chloro-3-[1-[2-(1-methylindazol-6-yl)-4-oxo-6-(trifluoromethyl)chromen-8-yl]ethylamino]pyridine-2-carboxylic acid], the IC50 was below 50 nM in test [1], below 500 nM in test [2] and 500 to 1000 nM in test [3].
Consider `Cc1cc(C(C)Nc2ccccc2C(=O)O)c2oc(-c3ccn4nncc4c3)cc(=O)c2c1` (single isomer, unassigned) [Example 58, 2-[1-[6-Methyl-4-oxo-2-(triazolo[1,5-a]pyridin-5-yl)chromen-8-yl]ethylamino]benzoic acid], for which the figures for the IC50 in test [1], in test [2] and in test [3] were 100 to 500 nM, below 500 nM and 1000 to 5000 nM, respectively.
`Cc1cc(C(C)Nc2ccccc2C(=O)O)c2oc(-c3ccc4oc(=O)[nH]c4c3)cc(=O)c2c1` (single isomer, unassigned) [Example 24, 2-[1-[6-Methyl-4-oxo-2-(2-oxo-3H-1,3-benzoxazol-5-yl)chromen-8-yl]ethylamino]benzoic acid]: the IC50 is 50 to 100 nM in test [1], below 500 nM in test [2] and 1000 to 5000 nM in test [3].
Regarding `Cc1cc(C(C)Nc2ccccc2C(=O)O)c2oc(-n3ncc4ccccc43)cc(=O)c2c1` (single isomer, unassigned) [Example 49, 2-[1-(2-Indazol-1-yl-6-methyl-4-oxo-chromen-8-yl)ethylamino]benzoic acid], the IC50 is below 50 nM in test [1], below 500 nM in test [2] and 500 to 1000 nM in test [3].
For `Cc1cc(C(C)Nc2ccc(Cl)nc2C(=O)O)c2oc(-c3cc(C)c4nn(C)cc4c3)cc(=O)c2c1` (single isomer, unassigned) [Example 188, 6-Chloro-3-[1-[2-(2,7-dimethylindazol-5-yl)-6-methyl-4-oxo-chromen-8-yl]ethylamino]pyridine-2-carboxylic acid], the 50% inhibitory concentration (IC50) is below 50 nM in test [1], below 500 nM in test [2] and 500 to 1000 nM in test [3].
With `Cc1cc([C@@H](C)Nc2cccc(F)c2C(=O)O)c2oc(-c3ccc4nc(C)cn4c3)c(C)c(=O)c2c1` [Example 229, 2-[[(1R)-1-[3,6-Dimethyl-2-(2-methylimidazo[1,2-a]pyridin-6-yl)-4-oxo-chromen-8-yl]ethyl]amino]-6-fluoro-benzoic acid], the figures for the IC50 in test [1], in test [2] and in test [3] were 100 to 500 nM, below 500 nM and below 500 nM, respectively.
With `Cc1cc(C(C)Nc2ccccc2C(=O)O)c2oc(-c3ccc4cc[nH]c4c3)c(C)c(=O)c2c1` (single isomer, unassigned) [Example 90, 2-[1-[2-(1H-Indol-6-yl)-3,6-dimethyl-4-oxo-chromen-8-yl]ethylamino]benzoic acid], the concentration for half-maximal inhibition (IC50) in test [1] was below 50 nM; in test [2], below 500 nM; in test [3], 1000 to 5000 nM.
As to `Cc1cc(C(C)Nc2ccccc2C(=O)O)c2oc(-c3ccc4cnn(C)c4n3)cc(=O)c2c1` (single isomer, unassigned) [Example 82, 2-[1-[6-Methyl-2-(1-methylpyrazolo[3,4-b]pyridin-6-yl)-4-oxo-chromen-8-yl]ethylamino]benzoic acid], the half-inhibitory concentration (IC50) is 100 to 500 nM in test [1], below 500 nM in test [2] and 500 to 1000 nM in test [3].
For the molecule `Cc1cc([C@@H](C)Nc2ccccc2C(=O)O)c2oc(-c3cc4cnccc4o3)c(C(F)(F)F)c(=O)c2c1` [Example 209, 2-[[(1R)-1-[2-Furo[3,2-c]pyridin-2-yl-6-methyl-4-oxo-3-(trifluoromethyl)chromen-8-yl]ethyl]amino]benzoic acid], the IC50 in test [1] was below 50 nM; in test [2] it was below 500 nM; in test [3], 500 to 1000 nM.
For `Cc1cc(C(C)Nc2ccccc2C(=O)O)c2oc(-c3ccc4c(c3)c(C)nn4C)cc(=O)c2c1` (single isomer, unassigned) [Example 59, 2-[1-[2-(1,3-Dimethylindazol-5-yl)-6-methyl-4-oxo-chromen-8-yl]ethylamino]benzoic acid], the values for the half-maximal inhibitory concentration (IC50) in test [1] and in test [2] were below 50 nM and below 500 nM, respectively.

As a reminder, the IC50 is the midpoint of a concentration-inhibition curve.
